Reference: US20260184669A1, “LIPID COMPOUND AND COMPOSITION FOR DELIVERY OF ACTIVE SUBSTANCE” (KOREA RESEARCH INSTIUTE OF BIOSCIENCE AND BIOTECHNOLOGY, priority 2022, published 2026)

Columns and labels:
[1] = test system: female C57BL/6 mice; assay: Protein expression efficiency of fLuc mRNA-LNPs after intramuscular injection (IVIS whole-body luminescence); type: in vivo; settings: fLuc mRNA-LNP, intramuscular injection, luminescence at injection site, mice
Outline: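 Female C57BL/6 mice (6-10 weeks, n≥4) got intramuscular fLuc mRNA-LNPs at 0.1-0.5 mg/kg mRNA. Injection-site luminescence was imaged under isoflurane at 1-72 h, 10 min after i.p. D-luciferin (200 μL, 15 mg/mL). Expression at 3 h was taken relative to MC3 or SM-102 LNPs.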

[2] = Size, polydispersity index and surface charge of mRNA-LNP (Malvern Zetasizer Nano ZS90); type: physicochemical
Outline: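 Dynamic/electrophoretic light scattering of LNPs diluted in PBS to a final mRNA concentration of 1 μg/mL. Readouts were particle size, PDI and surface charge.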

[3] = test system: IL-6 mRNA level in HEK-293T cells
[4] = Apparent pKa of mRNA-LNP by TNS binding assay; type: physicochemical; settings: apparent pKa of mRNA-LNP made with the ionizable lipid
Method: The apparent pKa of the mRNA-LNPs prepared according to Example 27 was determined by analysis using 6-(p-toluidino)-2-naphthalenesulfonic acid sodium salt (TNS; Sigma-Aldrich, USA).
However, as the pH decreases, the proportion of positively charged ionizable lipids increases, allowing electrostatic interactions with TNS. […] When the pH of the solution increases and the ionizable lipids become neutralized, TNS can no longer engage in electrostatic interactions. Consequently, TNS loses its lipophilic character, exits the hydrophobic domain, and its fluorescence is quenched. Based on this principle, the pKa of LNPs can be measured by plotting the change in TNS fluorescence intensity in response to variations in the surrounding pH as an S-shaped curve, and calculating the […] of the inflection point. […]
Specifically, a master buffer was prepared containing 10 mM sodium phosphate, 10 mM sodium borate, 10 mM sodium citrate, and 150 mM sodium chloride (NaCl). […] After gently mixing the contents of each well, the fluorescence intensity was measured using a multiplate reader (Cary Eclipse, Agilent Technologies, USA) at an excitation wavelength of λex 330 nm and an emission wavelength of λem 435 nm.

[5] = test system: IL-1β mRNA level in HEK-293T cells
[6] = test system: CCL3 mRNA level in HEK-293T cells
[7] = test system: CCL2 mRNA level in HEK-293T cells
[8] = Stability of mRNA-LNPs according to storage temperature and duration; type: physicochemical; settings: for Normalized EE % D-7 / PDI D-7 / Size (nm) D-7: day 7; for Normalized EE % D-30 / PDI D-30 / Size (nm) D-30: day 30
Method: Stability of fLuc mRNA-LNPs produced using various ionizable lipids according to the method of Example 27, was assessed by storing the LNPs at 4° C. and 25° C. At 1, 7, and 30 days post-manufacture, the size, PDI, and encapsulation efficiency (EE) of each mRNA-LNPs samples were measured using the methods described in Experimental Examples 2 and 3.

[9] = fLuc mRNA-LNP stored at 4° C., day 1
[10] = fLuc mRNA-LNP stored at 25° C., day 1

**Q.** With `CCCCC/C=C\C/C=C\CCCCCCCCC(CCCCCCCC/C=C\C/C=C\CCCCC)OC(=O)CCCN(C)C` [MC3, DLin-MC3-DMA, reference compound] as the compound, how does the “Total flux 1 hour” value ([1]; 1 hour after administration) read?
**A.** 1.20E+06

**Q.** What about the “Total flux 3 hours” value ([1]; 3 hours after administration) of the same compound?
**A.** 1.24E+07

**Q.** And the “Total flux 6 hours” value ([1]; 6 hours after administration)?
**A.** 1.78E+07

**Q.** What about the “Total flux 48 hours” value ([1]; 48 hours after administration) of the same compound?
**A.** 8.41E+05

**Q.** What about the “Total flux 72 hours” value ([1]; 72 hours after administration) of the same compound?
**A.** 3.89E+05

**Q.** And the Total flux ([1]; after administration)?
**A.** 1.03E+06

**Q.** What about the PDI ([2]; mRNA-LNP made with the ionizable lipid at its optimal formulation (Table 2)) of the same compound?
**A.** 0.174

**Q.** And the “size (nm) Number” value ([2]; mRNA-LNP made with the ionizable lipid at its optimal formulation (Table 2), diluted with PBS to 1 μg/mL mRNA)?
**A.** 93 nm

**Q.** And the “Zeta (mV)” value ([2]; surface charge of mRNA-LNP made with the ionizable lipid at its optimal formulation (Table 2))?
**A.** −2.65 mV

**Q.** And the “IL-6 Average” value [3]?
**A.** 1.27

**Q.** What about the PKa [4] of the same compound?
**A.** 6.14

**Q.** And the “IL-1β Average” value [5]?
**A.** 1.46

**Q.** What about the “CCL3 Average” value [6] of the same compound?
**A.** 1.86

**Q.** And the “CCL2 Average” value [7]?
**A.** 1.15

**Q.** And the “Normalized EE % D-1” value [8, 9]?
**A.** 95.0%

**Q.** And the “Size (nm) D-1” value [8, 9]?
**A.** 92.8 nm

**Q.** And the “Normalized EE % D-7” value ([8]; fLuc mRNA-LNP stored at 4° C.)?
**A.** 94.0%

**Q.** What about the “PDI D-7” value ([8]; fLuc mRNA-LNP stored at 4° C.) of the same compound?
**A.** 0.060

**Q.** And the “Size (nm) D-7” value ([8]; fLuc mRNA-LNP stored at 4° C.)?
**A.** 128.7 nm

**Q.** And the “Normalized EE % D-30” value ([8]; fLuc mRNA-LNP stored at 4° C.)?
**A.** 90.4%

**Q.** What about the “PDI D-30” value ([8]; fLuc mRNA-LNP stored at 4° C.) of the same compound?
**A.** 0.142

**Q.** And the “Size (nm) D-30” value ([8]; fLuc mRNA-LNP stored at 4° C.)?
**A.** 125.6 nm

**Q.** And the “Normalized EE % D-1” value [8, 10]?
**A.** 95.0%

**Q.** And the “PDI D-1” value [8, 10]?
**A.** 0.174

**Q.** What about the “Size (nm) D-1” value [8, 10] of the same compound?
**A.** 92.8 nm

**Q.** What about the “Normalized EE % D-7” value ([8]; fLuc mRNA-LNP stored at 25° C.) of the same compound?
**A.** 90.8%

**Q.** What about the “PDI D-7” value ([8]; fLuc mRNA-LNP stored at 25° C.) of the same compound?
**A.** 0.110

**Q.** And the “Size (nm) D-7” value ([8]; fLuc mRNA-LNP stored at 25° C.)?
**A.** 123.0 nm

**Q.** And the “Normalized EE % D-30” value ([8]; fLuc mRNA-LNP stored at 25° C.)?
**A.** 88.3%

**Q.** What about the “PDI D-30” value ([8]; fLuc mRNA-LNP stored at 25° C.) of the same compound?
**A.** 0.123

**Q.** What about the “Size (nm) D-30” value ([8]; fLuc mRNA-LNP stored at 25° C.) of the same compound?
**A.** 119.3 nm
